From patent publication US8680272B2, “3-arylethynyl substituted quinazolinone compounds” (Council of Scientific & Industrial Research, priority 2011, dated 2014)

How the values were obtained:
RPMI-8226 = assay: Anticancer activity, SRB assay, leukemia cell line RPMI-8226; type: cell-based; details: Homo sapiens; Leukemia RPMI-8226; 48 h continuous drug exposure; read-out: Growth Inhibition GI50
Experimental: (§1) Some of biological activity studies were carried out at the National Cancer Institute (NCI), Maryland, USA.
(§2) The compounds were evaluated for anticancer activity against sixty human cancer cells derived from nine cancer types (leukemia cell line, non-small-cell lung cell line, colon cell line, CNS cell line, melanoma cell line, ovarian cell line, prostate cell line, renal cell line and breast cancer cell line) as shown in Table 1. For each compound, dose response curves for each cell line were measured at a minimum of five concentrations at 10 fold dilutions. A protocol of 48 h continuous drug exposure was used and a sulforhodamine B (SRB) protein assay was used to estimate cell viability or growth.

COLO 205 = assay: Anticancer activity, SRB assay, colon cell line COLO 205; type: cell-based; details: Homo sapiens; Colon COLO 205; 48 h continuous drug exposure; read-out: Growth Inhibition GI50
Experimental: as §1, §2

K-562 = assay: Anticancer activity, SRB assay, leukemia cell line K-562; type: cell-based; details: Homo sapiens, K562; Leukemia K-562; 48 h continuous drug exposure; read-out: Growth Inhibition GI50
Experimental: as §1, §2

M14 = assay: Anticancer activity, SRB assay, melanoma cell line M14; type: cell-based; details: Homo sapiens, 48 h continuous drug exposure, read-out: Growth Inhibition GI50
Experimental: as §1, §2

U251 = assay: Anticancer activity, SRB assay, CNS cell line U251; type: cell-based; details: Homo sapiens, U-251, 48 h continuous drug exposure, read-out: Growth Inhibition GI50
Experimental: as §1, §2

MDA-MB-468 = assay: Anticancer activity, SRB assay, breast cell line MDA-MB-468; type: cell-based; details: Homo sapiens; Breast MDA-MB-468; 48 h continuous drug exposure; read-out: Growth Inhibition GI50
Experimental: as §1, §2

OVCAR-8 = assay: Anticancer activity, SRB assay, ovarian cell line OVCAR-8; type: cell-based, human; details: Homo sapiens; Ovarian OVCAR-8; 48 h continuous drug exposure; —^b means GI50 values not attained at the concentrations used; read-out: Growth Inhibition GI50
Experimental: as §1, §2

DU-145 = assay: Anticancer activity, SRB assay, prostate cell line DU-145; type: cell-based, human; details: Homo sapiens; Prostate DU-145; 48 h continuous drug exposure; —^b means GI50 values not attained at the concentrations used; read-out: Growth Inhibition GI50
Experimental: as §1, §2

[1] = test system: six breast cancer cell line (MCF-7, MDA-MB-231/ATCC, HS 578T, TD-47D, MDA-MB-468 and BT-549); assay: Anticancer activity, SRB assay, breast panel; type: cell-based, human
Experimental: as §1, §2

T-47D = assay: Anticancer activity, SRB assay, breast cell line T-47D; type: cell-based, human; details: Homo sapiens, T47D; Breast T-47D; 48 h continuous drug exposure; —^b means GI50 values not attained at the concentrations used; read-out: Growth Inhibition GI50
Experimental: as §1, §2

CCRF-CEM = assay: Anticancer activity, SRB assay, leukemia cell line CCRF-CEM; type: cell-based, human; details: Homo sapiens, 48 h continuous drug exposure, —^b means GI50 values not attained at the concentrations used, read-out: Growth Inhibition GI50
Experimental: as §1, §2

NCI-H460 = assay: Anticancer activity, SRB assay, non-small lung cell line NCI-H460; type: cell-based; details: Homo sapiens, Non-small lung NCl-H460, 48 h continuous drug exposure, read-out: Growth Inhibition GI50
Experimental: as §1, §2

SNB-75 = assay: Anticancer activity, SRB assay, CNS cell line SNB-75; type: cell-based, human; details: Homo sapiens; CNS SNB-75; 48 h continuous drug exposure; —^b means GI50 values not attained at the concentrations used; read-out: Growth Inhibition GI50
Experimental: as §1, §2

[2] = test system: two prostate cancer cell line (PC-3, DU-145); assay: Anticancer activity, SRB assay, prostate panel; type: cell-based, human
Experimental: as §1, §2

[3] = Anticancer activity, SRB assay, melanoma panel; type: cell-based, human; details: Homo sapiens; nine melanoma cancer cell line; exposure period of at least 48 h; read-out: GI50 (range over the panel)
Experimental: as §1, §2

[4] = test system: nine melanoma cancer cell line (LOX IMVI, MALME-3M, M14, MDA-MB-435, SK-MEL-2, SK-MEL-28, SK-MEL-5, UACC-257 and UACC-62); assay: Anticancer activity, SRB assay, melanoma panel; type: cell-based, human; details: Melanoma
Experimental: as §1, §2

IGROV1 = assay: Anticancer activity, SRB assay, ovarian cell line IGROV1; type: cell-based, human; details: Homo sapiens, IGROV-1, 48 h continuous drug exposure, —^b means GI50 values not attained at the concentrations used, read-out: Growth Inhibition GI50
Experimental: as §1, §2

TK-10 = assay: Anticancer activity, SRB assay, renal cell line TK-10; type: cell-based, human; details: Homo sapiens; Renal TK-10; 48 h continuous drug exposure; —^b means GI50 values not attained at the concentrations used; read-out: Growth Inhibition GI50
Experimental: as §1, §2

SF-268 = assay: Anticancer activity, SRB assay, CNS cell line SF-268; type: cell-based, human; details: Homo sapiens; CNS SF-268; 48 h continuous drug exposure; —^b means GI50 values not attained at the concentrations used; read-out: Growth Inhibition GI50
Experimental: as §1, §2

OVCAR-3 = assay: Anticancer activity, SRB assay, ovarian cell line OVCAR-3; type: cell-based; details: Homo sapiens; Ovarian OVCAR-3; 48 h continuous drug exposure; read-out: Growth Inhibition GI50
Experimental: as §1, §2

NCI-H522 = assay: Anticancer activity, SRB assay, non-small lung cell line NCI-H522; type: cell-based, human; details: Homo sapiens, NCI-H522; Non-small lung NCl-H522; 48 h continuous drug exposure; —^b means GI50 values not attained at the concentrations used; read-out: Growth Inhibition GI50
Experimental: as §1, §2

PC-3 = assay: Anticancer activity, SRB assay, prostate cell line PC-3; type: cell-based, human; details: Homo sapiens; Prostate PC-3; 48 h continuous drug exposure; —^b means GI50 values not attained at the concentrations used; read-out: Growth Inhibition GI50
Experimental: as §1, §2

MOLT-4 = assay: Anticancer activity, SRB assay, leukemia cell line MOLT-4; type: cell-based; details: Homo sapiens; Leukemia MOLT-4; 48 h continuous drug exposure; read-out: Growth Inhibition GI50
Experimental: as §1, §2

ACHN = assay: Anticancer activity, SRB assay, renal cell line ACHN; type: cell-based, human; details: Homo sapiens, 48 h continuous drug exposure, —^b means GI50 values not attained at the concentrations used, read-out: Growth Inhibition GI50
Experimental: as §1, §2

A498 = assay: Anticancer activity, SRB assay, renal cell line A498; type: cell-based, human; details: Homo sapiens, 48 h continuous drug exposure, —^b means GI50 values not attained at the concentrations used, read-out: Growth Inhibition GI50
Experimental: as §1, §2

NCI-H322M = assay: Anticancer activity, SRB assay, non-small lung cell line NCI-H322M; type: cell-based, human; details: Homo sapiens, NCI-H322M; Non-small lung NCl-H322M; 48 h continuous drug exposure; —^b means GI50 values not attained at the concentrations used; read-out: Growth Inhibition GI50
Experimental: as §1, §2

NCI/ADR-RES = assay: Anticancer activity, SRB assay, ovarian cell line NCI/ADR-RES; type: cell-based, human; details: Homo sapiens, NCI/ADR-RES; Ovarian NCl/ADR-RES; 48 h continuous drug exposure; —^b means GI50 values not attained at the concentrations used; read-out: Growth Inhibition GI50
Experimental: as §1, §2

EKVX = assay: Anticancer activity, SRB assay, non-small lung cell line EKVX; type: cell-based; details: Homo sapiens, 48 h continuous drug exposure, read-out: Growth Inhibition GI50
Experimental: as §1, §2

Cc1cc(C#Cc2ccccc2)ccc1-n1c(/C=C/c2ccc(O)cc2)nc2ccccc2c1=O [Compound 4b, (E)-2-(4-Hydroxystyryl)-3-(2-methyl-4-(phenylethynyl)phenyl)quinazolin-4(3H)-one]
GI50 (RPMI-8226): 2330 nM
GI50 (COLO 205): 1990 nM
GI50 (K-562): 2000 nM
GI50 (M14): 3.26 µM
GI50 (U251): 4.33 µM
GI50 (MDA-MB-468): 3.78 µM
GI50 (OVCAR-8): 3.98 µM
GI50 (DU-145): 4.87 µM
mean graph midpoint values (MG_MID) of log10 TGI (Log10TGI50) ([1]; Breast, log value of concentration of the compound resulting in total inhibition of net cell growth): −4.58
mean graph midpoint values (MG_MID) of Log10LC50 ([1]; Breast, log value of the concentration of compounds leading to 50% net cell death): >−4.00
mean graph midpoint values (MG_MID) of Log10GI50 ([1]; Breast, log values of concentration in mol/L causing 50% inhibition of net cell growth): −5.54 mol/L
GI50 ([1]; Homo sapiens, six breast cancer cell line, exposure period of at least 48 h, read-out: GI50 (range over the panel)): 2020 to 3890 nM
GI50 (T-47D): 2020 nM
GI50 (CCRF-CEM): 3.26 µM
GI50 (NCI-H460): 2220 nM
GI50 (SNB-75): 3.66 µM
GI50 ([2]; Homo sapiens, DU-145, two prostate cancer cell line, exposure period of at least 48 h, read-out: GI50 (range over the panel)): 3.24 to 4.87 µM
mean graph midpoint values (MG_MID) of log10 TGI (Log10TGI50) ([2]; Prostate, log value of concentration of the compound resulting in total inhibition of net cell growth): >−4.00
mean graph midpoint values (MG_MID) of Log10LC50 ([2]; Prostate, log value of the concentration of compounds leading to 50% net cell death): >−4.00
mean graph midpoint values (MG_MID) of Log10GI50 ([2]; Prostate, log values of concentration in mol/L causing 50% inhibition of net cell growth): −5.40 mol/L
GI50 [3]: 1.77 to 4.54 µM
mean graph midpoint values (MG_MID) of log10 TGI (Log10TGI50) ([4]; log value of concentration of the compound resulting in total inhibition of net cell growth): −4.79
mean graph midpoint values (MG_MID) of Log10LC50 ([4]; log value of the concentration of compounds leading to 50% net cell death): −4.16
mean graph midpoint values (MG_MID) of Log10GI50 ([4]; log values of concentration in mol/L causing 50% inhibition of net cell growth): −5.54 mol/L
GI50 (IGROV1): 20.6 µM
GI50 (TK-10): 2620 nM
GI50 (SF-268): 4.56 µM
GI50 (OVCAR-3): 3.6 µM
GI50 (NCI-H522): 2260 nM
GI50 (PC-3): 3.24 µM
GI50 (MOLT-4): 2360 nM
GI50 (ACHN): 2460 nM
GI50 (A498): 1560 nM
GI50 (NCI-H322M): 2930 nM
GI50 (NCI/ADR-RES): 3.09 µM
GI50 (EKVX): 2430 nM
